Measurements reported in patent publication US9611286B2, “Ruthenium carbon monoxide releasing molecules and uses thereof” (Alfama, Inc., priority 2011, dated 2017).
“Also recorded” adds a separate entry of the source.

Experiments:
[1] = Quantification of COHb in peripheral blood; type: in vivo, C57BL/6 mice; conditions: infected mice, day 3 after infection
Description: Blood was collected from the tail of the mice to capillary tubes (VWR) with heparin (100 i.u./ml in PBS 1×; LEO Pharma Inc.), transferred into AVOXimeter 4000 cuvettes (ITC) where the levels of carboxyhemoglobin (COHb), oxyhemoglobin (02Hb) and methemoglobin (MetHb) were measured in a portable AVOXimeter 4000 CO-oximeter (ITC). Results are shown as mean percentage of total hemoglobin species in circulation.

[2] = Quantification of Ru in tissues (bio-distribution); conditions: liver, kidney, spleen, lung and brain
Description: Tricarbonyldichloro(methylthiogalactopyranoside) Ru(II) [Ru(CO)3Cl2(Gal-S-Me)], also referred to herein as Compound 1, was prepared by reacting CORM-2 with methylthiogalactopyranoside (Gal-S-Me) as described herein (see FIG. 2a and Materials and Methods section). The bio-distribution of Compound 1 in tissues was assessed by quantifying the levels of Ru and CO in the host by the method of Vreman et al., Anal Biochem (2005) 341:280-9. Liver, kidney, spleen, lung and brain tissues of non-infected mice (NI) were analyzed one hour after administration of Compound 1 and the control molecule, Compound 2 (FIG. 2b). […] The spleen is an organ that plays a crucial role in erythrophagocytosis, process important for red blood cell turnover, and recycling of iron. Erythrocytes are hydrolyzed by splenic macrophages, where the degradation of hemoglobin occurs, haem is release, and is catabolized by heme oxygenase-1 into biliverdin, carbon monoxide and ferrous iron (Fe^2+).
The tissue samples were weighed and dried at 80° C. overnight followed by 2 or more hours at 120° C. […] The Ru content was analyzed by an inductively coupled plasma-atomic emission spectrometer (ICP-AES) (model Ultima-Horiba Jobin Yvon, Longjumeau, France) using an external Ru standard method.

[3] = test system: P. berghei ANKA GFP; experiment: Adjunctive/adjuvant therapy with artesunate after onset of ECM; type: in vivo, C57BL/6 mice; conditions: during administration of AS, between days 5 and 6
Description: Thus, the inventors decided to test Compound 1 as an adjunctive and adjuvant therapy during the acute phase of ECM. […] Therefore, the inventors assessed the combination of Compound 1 and AS on parasite clearance and clinical recovery from ECM. Two AS and Compound 1 combinations were tested: (i) Adjunctive therapy: AS and Compound 1 were administered concomitantly for 2 days after the onset of CM followed by a 3-day treatment with Compound 1 alone, or (ii) Adjuvant therapy: AS was administered on the first 2 days after CM onset followed by Compound 1 administration for 3 more days.
In order to evaluate the clinical presentation of experimental cerebral malaria, a classification was used in clinical stages from 0 to 4 (see, e.g., Bienvenu et al., Acta Trop (2008) 106:104-8; Franklin et al., Proc Natl Acad Sci USA (2011) 108:3689-94). Briefly, stage 0 indicates no detectable clinical symptoms, stage 1, ruffled fur; stage 2, ruffled fur and unbalancing; stage 3, limb paralysis and respiratory distress and stage 4, convulsions, coma or death. The mice were clinically classified before and after the treatment to evaluate the clinical recovery.
CORM-2 (Sigma-Aldrich) and Compound 2 were solubilized using 10% dimethyl sulfoxide (DMSO; Sigma-Aldrich) in PBS. CORM-3 and Compound 1 were solubilized in PBS (lx). CORM-2 solution (20 mg/kg of body weight) was administered intravenously (i.v.) according to the chosen schedules. […] As vehicle control, we used a solution of 10% DMSO in PBS administered i.v. The concentrations of CORM-2 used in the present study were based on previous reports (see, e.g., Chen et al. Am. J. Pathol. (2009) 175:422-429; Sun et al., World. J. Gastroenterol. (2008) 14:547-553). Artesunate is presented as a powder of artesunic acid. Artesunate (AS) solution was prepared by dissolving 60 mg of anhydrous artesunic acid in 1 ml of sodium bicarbonate (5%) to form sodium artesunate and then diluted in 5 ml of NaCl (0.9%). An AS solution (i.p.) was administered at 40 mg/Kg/day, as described previously (see, e.g., Bienvenu, Acta Trop (2008) 106:104-108). The AS treatment was started when the infected non-treated mice presented the clinical stage 1 for experimental cerebral malaria.

[4] = test system: Myoglobin (Mb) from equine skeletal muscle; experiment: Deoxy-myoglobin (Mb) carbonylation assay, CO release; type: biochemical; conditions: after 15 minutes of incubation with deoxy-Mb, PBS pH 7.4
Description: The CO donation capacity of Compound 1 by a deoxy-myoglobin (Mb) carbonylation assay was then evaluated (see, e.g., Clark et al., Am J Pathol (1992) 140:325-336).
The Mb assay was performed as described in Clark et al., Circ. Res. (2003) 93:2-8. A stock solution of Myoglobin (Mb) from equine skeletal muscle was prepared by dissolving the protein in PBS7.4. From this solution aliquots were taken to a cuvette (final concentration between ca. 60 μM) and Na2S2O4 in PBS, pH 7.4 (10 mg/mL solution; 0.1% final concentration) was added to convert met-Mb into deoxy-Mb. The reactions were done by mixing in the same cuvette and by this order, the Mb stock solution, the Na2S2O4 solution, a calculated amount of a solution of Compound I and adding PBS to obtain the desired final volume. […] Two controls were done in duplicate, the negative control (0% CO-Mb), a deoxy-Mb solution and the positive control (100% CO-Mb), obtained by bubbling pure CO gas into the deoxy-Mb solution for 10-15 min. The experimental spectrum was fitted as a weighted sum of the deoxy-Mb and the CO-Mb spectra. […] The absorbance spectrum was converted into a percentage of CO-Mb and the amount of CO liberated was calculated as molar equivalents of CO based on the initial concentration of Compound I (see FIG. 10).

[5] = test system: P. berghei ANKA; experiment: Malaria-associated acute lung injury (M-AALI) model; type: in vivo, DBA/2 mice; conditions: i.v. twice daily between days 2 and 4 after infection
Description: The M-AALI model, based on the infection of DBA-2 mice with P. berghei ANKA, is characterized by dyspnea, airway obstruction, hypoxemia, pulmonary exudate and elevated VEGF levels in plasma, followed by death between days 7 and 12 after infection.
Red blood cells infected with green fluorescent protein (GFP)-transgenic P. berghei ANKA and P. berghei ANKA was used to infect mice (see, e.g., Franke-Fayard et al. Mol Biochem Parasitol (2004) 137:23-33). Cryopreserved parasites were passed once through C57BL/6 or DBA-2 mice before being used to infect experimental animals. […] The infected mice were monitored daily for clinical symptoms of experimental cerebral malaria (ECM) including hemi- or paraplegia, head deviation, tendency to roll over on stimulation, ataxia and convulsions, or ALI, including dyspnea. […] Parasitemia was assessed by flow cytometry for mice infected with GFP-expressing P. berghei ANKA, using tail blood, as previously described (see, e.g., Pamplona et al., Nat Med (2007) 13:703-710). Mean parasitemia is expressed as percentage of infected red blood cells. For mice infected with non-GFP P. berghei parasitemia was assessed daily by microscopic counting of Giemsa-stained thin blood smears. Mean parasitemia is expressed as percentage of infected red blood cells. Survival is expressed as percentage. […]

[6] = BBB disruption by Evans blue accumulation in brain parenchyma; type: in vivo, C57BL/6 mice; conditions: when control mice showed signs of ECM
[7] = Lung histology (hematoxylin and eosin) in M-AALI; type: in vivo; conditions: infected DBA/2 mice
Description: For evaluation of histological features, mice were deeply anesthetized until cessation of breathing when infected control mice presented signs of ECM or ALI. The livers, lungs, and brains were removed and fixed in 10% buffered formalin for 24-72 h. Four-micron sections were cut from paraffin-embedded tissues and stained with hematoxylin and eosin according to standard procedures. Histological analyses were performed on a Leica microscope DM 2500 (Leica Microsystems).

C[SH]([C@@H]1OC(CO)[C@H](O)[C@H](O)C1O)[Ru]([Cl])([Cl])([CH]=O)([CH]=O)[CH]=O (stereo partly shown) [Compound 1, Tricarbonyldichloro(methylthiogalactopyranoside) Ru(II)]
COHb levels in the blood [1]: without causing measurable increase in COHb levels | Ru distribution in organs [2]: marked affinity for the liver; also recorded: No signs of ruthenium are found in the brain | interference with the anti-malarial action of AS [3]: did not interfere with the anti-malarial action of AS in vivo | CO transferred to Mb [4]: approximately 1 equivalent of CO | mice that developed M-AALI [5]: None | BBB disruption [6]: did not show any evidence of BBB disruption | vascular congestion with pRBCs in lung tissue [7]: major differences in the vascular congestion with pRBCs
